{
  "source": "patent US20160113921A1",
  "about": "“COMBINATION THERAPY COMPRISING OXAZOLIDINONE-QUINOLONES FOR USE IN TREATING BACTERIAL INFECTIONS” (MORPHOCHEM AKTIENGESELLSCHAFT FÜR KOMBINATORISCHE CHEMIE, priority 2013, published 2016)",
  "assay_type_in_all_cases": "cell-based",
  "key": {"[1]": {"tested_on": "E. cloacae NRZ-00239 (VIM-1 β-lactamase)", "experiment": "Checkerboard titration of Compound 1 and colistin", "description": "(§1) The checkerboard consists of columns in which each well contains the same amount of antibacterial A being over i dilutions along the x-axis, and in rows in which each well contains the same amount of antibacterial B over j dilutions on the y-axis, i.e. serial dilutions of antibacterials A and B, respectively, are titrated in a rectangular fashion.\n(§2) The fractional inhibitory concentration (FIC) is a mathematical expression of the effect of the combination of two antibacterial agents A and B. The FICs were calculated as the MIC of antibacterial A and antibacterial B in combination divided by the MIC of antibacterial A or antibacterial B alone.\n(§3) The FICs and FIC index, respectively, are calculated according to the following equations:\n(§4) FIC(A)=MIC(A in the presence of B)/MIC(A alone)\n(§5) FIC(B)=MIC(B in the presence of A)/MIC(B alone)\n(§6) The checkerboard titrations were performed three times."}, "[2]": {"tested_on": "E. cloacae ATCC 13047", "experiment": "Checkerboard titration of Compound 1 and colistin", "details": "checkerboard", "description": "as §1, §2, §3, §4, §5, §6"}, "[3]": {"tested_on": "E. coli ATCC 25922", "experiment": "Checkerboard titration of Compound 1 and colistin", "description": "as §1, §2, §3, §4, §5, §6"}, "[4]": {"tested_on": "K. pneumoniae NRZ-00535 (VIM-1)", "experiment": "MIC, broth microdilution (CLSI), CAMHB", "details": "monosubstance; Kp NRZ00535", "description": "(§7) MIC-testing was done immediately after preparation of the dilutions. All tests were done in duplicate and repeated once on a separate occasion.\n(§8) 1 mL of the bacterial suspension was transferred into a tube containing 10 mL CAMHB and was vortexed thoroughly. (S. pneumoniae 1 mL in 10 mL CAMHB+5% lysed horse blood). Columns 1-15 of the 96-well plate were inoculated with 5 μL of this suspension (1-15=antibacterial solution, 16=sterile medium without test item).\n(§9) Turbidity was read visually with a mirror."}, "[5]": {"tested_on": "E. coli GNS-2601 (ESBL CTX-M-15)", "experiment": "MIC, broth microdilution (CLSI), CAMHB", "details": "monosubstance; Ec GNS2601", "description": "as §7, §8, §9"}, "[6]": {"tested_on": "E. cloacae NRZ-00239 (VIM-1)", "experiment": "MIC, broth microdilution (CLSI), CAMHB", "details": "monosubstance; Ecl NRZ00239", "description": "as §7, §8, §9"}, "[7]": {"tested_on": "P. aeruginosa NRZ-00425 (VIM-1)", "experiment": "MIC, broth microdilution (CLSI), CAMHB", "details": "monosubstance; Pa NRZ00425", "description": "as §7, §8, §9"}, "[8]": {"tested_on": "P. aeruginosa ATCC 10145", "experiment": "MIC, broth microdilution (CLSI), CAMHB", "details": "monosubstance; Pa ATCC10145", "description": "as §7, §8, §9"}, "[9]": {"tested_on": "E. coli NRZ-00401 (metallo β-lactamase VIM-1)", "experiment": "MIC, broth microdilution (CLSI), CAMHB", "details": "monosubstance; Ec NRZ00401", "description": "as §7, §8, §9"}, "[10]": {"tested_on": "K. pneumoniae NRZ-00103 (KPC-2)", "experiment": "MIC, broth microdilution (CLSI), CAMHB", "details": "monosubstance; Kp NRZ00103", "description": "as §7, §8, §9"}, "[11]": {"tested_on": "K. pneumoniae NRZ-00002 (OXA-48)", "experiment": "MIC, broth microdilution (CLSI), CAMHB", "details": "monosubstance; Kp NRZ00002", "description": "as §7, §8, §9"}, "[12]": {"tested_on": "P. mirabilis ATCC 9240", "experiment": "MIC, broth microdilution (CLSI), CAMHB", "details": "monosubstance; Pm ATCC9240", "description": "as §7, §8, §9"}, "[13]": {"tested_on": "E. cloacae ATCC 13047", "experiment": "MIC, broth microdilution (CLSI), CAMHB", "details": "monosubstance; Ecl ATCC13047", "description": "as §7, §8, §9"}, "[14]": {"tested_on": "E. coli ATCC 25922", "experiment": "MIC, broth microdilution (CLSI), CAMHB", "details": "monosubstance; Ec ATCC25922", "description": "as §7, §8, §9"}, "[15]": {"tested_on": "K. pneumoniae ATCC 13883", "experiment": "MIC, broth microdilution (CLSI), CAMHB", "details": "monosubstance; Kp ATCC13883", "description": "as §7, §8, §9"}, "[16]": {"tested_on": "E. coli NRZ-00302 (metallo β-lactamase NDM-1)", "experiment": "MIC, broth microdilution (CLSI), CAMHB", "details": "monosubstance; Ec NRZ00302", "description": "as §7, §8, §9"}, "[17]": {"tested_on": "P. mirabilis NRZ-00185 (AmpC, type CMY-2)", "experiment": "MIC, broth microdilution (CLSI), CAMHB", "details": "monosubstance; Pm NRZ00185", "description": "as §7, §8, §9"}, "[18]": {"tested_on": "E. coli NRZ-00302", "experiment": "Time-kill curves", "details": "E. coli NRZ00302; for growth- and kill rates k ('+' = growth, unmarked = kill rate): first four hours"}, "[19]": {"tested_on": "E. coli ATCC 25922, NRZ-00401, NRZ-00302 and GNS-2601", "experiment": "Time-kill curves, statements on the four E. coli strains", "details": "one- or two-times MIC; four E. coli strains"}, "[20]": {"tested_on": "E. coli NRZ-00302 (NDM-1 β-lactamase)", "details": "checkerboard", "description": "as §1, §2, §3, §4, §5, §6"}, "[21]": {"tested_on": "K. pneumoniae NRZ-00535 (VIM-1 β-lactamase)", "details": "checkerboard", "description": "as §1, §2, §3, §4, §5, §6"}, "[22]": {"tested_on": "E. coli NRZ-00401", "experiment": "Time-kill curves", "details": "E. coli NRZ00401; for growth- and kill rates k ('+' = growth, unmarked = kill rate): first four hours"}, "[23]": {"tested_on": "P. aeruginosa NRZ-00425 (VIM-2 β-lactamase)", "experiment": "microbe, parasite or virus in culture", "details": "checkerboard", "description": "as §1, §2, §3, §4, §5, §6"}, "[24]": {"tested_on": "E. coli ATCC 25922", "experiment": "Time-kill curves", "details": "E. coli ATCC25922; for growth- and kill rates k ('+' = growth, unmarked = kill rate): first four hours"}, "[25]": {"tested_on": "E. coli GNS-2601", "experiment": "Time-kill curves", "details": "E. coli GNS2601; for growth- and kill rates k ('+' = growth, unmarked = kill rate): first four hours"}},
  "note": "Like-named read-outs stand apart in the source and are kept apart here.",
  "data": [
    {"substance": "colistin", "values": [
      {"measurement": "MIC (agent alone)", "setting": "[1]", "value": 1, "unit": "mg/L"},
      {"measurement": "MIC (agent alone)", "setting": "[1]; listed as col", "value": "0.5 to 1", "unit": "mg/L"},
      {"measurement": "MIC (agent alone)", "setting": "[2]", "value": 256, "unit": "mg/L"},
      {"measurement": "MIC (agent alone)", "setting": "[3]", "value": "1 to 2", "unit": "mg/L"},
      {"measurement": "MIC", "setting": "[4]", "value": 0.25, "unit": "mg/L"},
      {"measurement": "MIC", "setting": "[5]", "value": 2, "unit": "mg/L"},
      {"measurement": "MIC", "setting": "[6]", "value": 0.5, "unit": "mg/L"},
      {"measurement": "MIC", "setting": "[7]", "value": 1, "unit": "mg/L"},
      {"measurement": "MIC", "setting": "[8]", "value": 0.5, "unit": "mg/L"},
      {"measurement": "MIC", "setting": "[9]", "value": 1, "unit": "mg/L"},
      {"measurement": "MIC", "setting": "[10]", "value": 0.25, "unit": "mg/L"},
      {"measurement": "MIC", "setting": "[11]", "value": 0.25, "unit": "mg/L"},
      {"measurement": "MIC", "setting": "[12]", "value": ">256", "unit": "mg/L"},
      {"measurement": "MIC", "setting": "[13]", "value": 64, "unit": "mg/L"},
      {"measurement": "MIC", "setting": "[14]", "value": 1, "unit": "mg/L"},
      {"measurement": "MIC", "setting": "[15]", "value": 0.03, "unit": "mg/L"},
      {"measurement": "MIC", "setting": "[16]", "value": 1, "unit": "mg/L"},
      {"measurement": "MIC", "setting": "[17]", "value": ">256", "unit": "mg/L"},
      {"measurement": "growth- and kill rates k ('+' = growth, unmarked = kill rate)", "setting": "[18]; single agent at 1x its MIC", "value": 1.63, "unit": "h⁻¹"},
      {"measurement": "growth- and kill rates k ('+' = growth, unmarked = kill rate)", "setting": "[18]; single agent at 2x its MIC", "value": 1.89, "unit": "h⁻¹"},
      {"measurement": "Viable counts at 8 h of exposure", "setting": "[18]; single agent at 1x its MIC", "value": 1.95, "unit": "log10 CFU/mL"},
      {"measurement": "Viable counts at 8 h of exposure", "setting": "[18]; single agent at 2x its MIC", "value": 0, "unit": "log10 CFU/mL"},
      {"measurement": "type of activity in time-kill", "setting": "[19]", "value": "bactericidal"},
      {"measurement": "MIC (agent alone)", "setting": "[20]", "value": "0.5 to 1", "unit": "mg/L"},
      {"measurement": "MIC (agent alone)", "setting": "[21]", "value": "0.5 to 2", "unit": "mg/L"},
      {"measurement": "growth- and kill rates k ('+' = growth, unmarked = kill rate)", "setting": "[22]; single agent at 1x its MIC", "value": 2.46, "unit": "h⁻¹"},
      {"measurement": "growth- and kill rates k ('+' = growth, unmarked = kill rate)", "setting": "[22]; single agent at 2x its MIC", "value": 2.53, "unit": "h⁻¹"},
      {"measurement": "Viable counts at 8 h of exposure", "setting": "[22]; single agent at 1x its MIC", "value": 0, "unit": "log10 CFU/mL"},
      {"measurement": "Viable counts at 8 h of exposure", "setting": "[22]; single agent at 2x its MIC", "value": 0, "unit": "log10 CFU/mL"},
      {"measurement": "MIC (agent alone)", "setting": "[23]", "value": 2, "unit": "mg/L"},
      {"measurement": "growth- and kill rates k ('+' = growth, unmarked = kill rate)", "setting": "[24]; single agent at 1x its MIC", "value": 0.86, "unit": "h⁻¹"},
      {"measurement": "growth- and kill rates k ('+' = growth, unmarked = kill rate)", "setting": "[24]; single agent at 2x its MIC", "value": 1.04, "unit": "h⁻¹"},
      {"measurement": "Viable counts at 8 h of exposure", "setting": "[24]; single agent at 1x its MIC", "value": 0, "unit": "log10 CFU/mL"},
      {"measurement": "Viable counts at 8 h of exposure", "setting": "[24]; single agent at 2x its MIC", "value": 0, "unit": "log10 CFU/mL"},
      {"measurement": "growth- and kill rates k ('+' = growth, unmarked = kill rate)", "setting": "[25]; single agent at 1x its MIC", "value": 1.55, "unit": "h⁻¹"},
      {"measurement": "growth- and kill rates k ('+' = growth, unmarked = kill rate)", "setting": "[25]; single agent at 2x its MIC", "value": 1.80, "unit": "h⁻¹"},
      {"measurement": "Viable counts at 8 h of exposure", "setting": "[25]; single agent at 1x its MIC", "value": 0, "unit": "log10 CFU/mL"},
      {"measurement": "Viable counts at 8 h of exposure", "setting": "[25]; single agent at 2x its MIC", "value": 0, "unit": "log10 CFU/mL"}
    ]}
  ]
}
